These results are taken from US9249116B2, “Enzyme-activating compounds and compositions” (The Board of Trustees of the University of Illinois, priority 2012, dated 2016).

The target of data set [1] is T1, procaspase-3 (Homo sapiens, UniProt P42574).
T1 construct: 6xHis (C); made in house; host or cells: Rosetta E. coli
T1 sequence (P42574 1-277): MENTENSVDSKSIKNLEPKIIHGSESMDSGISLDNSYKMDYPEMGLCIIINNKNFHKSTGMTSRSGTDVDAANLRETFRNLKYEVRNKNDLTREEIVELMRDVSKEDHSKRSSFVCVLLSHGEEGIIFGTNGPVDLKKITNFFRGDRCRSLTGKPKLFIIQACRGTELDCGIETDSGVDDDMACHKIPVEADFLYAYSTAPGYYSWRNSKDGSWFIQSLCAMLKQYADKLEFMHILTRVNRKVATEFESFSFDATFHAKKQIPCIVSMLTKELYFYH
Kind of data set: Procaspase-3 activity assay (relief of zinc-mediated inhibition, Ac-DEVD-pNA cleavage). The class given is biochemical. The following applies: procaspase-3 incubated with […] ZnSO4; method gives compounds at 25 μM. As for the experimental part:
The six confirmed hits were then evaluated in vitro for their ability to relieve zinc-mediated inhibition of procaspase-3 (Table A). In this experiment, procaspase-3 was incubated with ZnSO4, conditions in which procaspase-3 has no enzymatic activity.
Techniques adapted from Hergenrother and coworkers (Putt et al., Nat Chem Biol 2006, 2, 543-550). A 20 mL volume of an overnight culture of Rosetta E. coli containing the procaspase-3 (wild-type) expression plasmid was seeded into 2 L of LB media containing ampicillin. The culture was grown to an OD600=1.0, at which point protein expression was induced via addition of IPTG (to 1 mM); the culture was allowed to grow for 30 additional minutes. Cells were then harvested (10 minute spins at 10,000×g and re-suspended in NTA binding buffer (300 mM NaCl, 50 mM Tris, 10 mM imidazole, pH 8.0). The cells were lysed on ice via sonication. The cell lysate was then spun at 35,000×g for […] The supernatant was decanted and 1 mL of nickel-NTA resin was added. The cell lysate was incubated for 45 minutes at 4° C. The resin was loaded on a column, washed with 10 mL NTA binding buffer followed by 10 mL NTA wash buffer (300 mM NaCl, 50 mM Tris, 50 mM imidazole, pH 8.0). The proteins were eluted in 0.5 mL fractions with 10 mL of NTA elution buffer (300 mM NaCl, 50 mM Tris, 500 mM imidazole, pH 8.0). Fractions containing protein were pooled and further purified to remove any contaminating zinc by applying the protein to a PD-10 column (GE Healthcare) charged with Caspase Activity Buffer that had been treated with Chelex® resin. The resulting concentration was determined using the Edelhoch method and the molar absorptivity of procaspase-3 of 26150 M^−1 cm^−1. Protein stocks were flash-frozen in liquid nitrogen and stored at −80° C.
In a 384-well plate recombinantly expressed, zinc-free procaspase-3 (wild type, at 1 μM) in Caspase Activity Buffer (50 mM HEPES, 300 mM NaCl, 1.5 mM TCEP, 0.01% TritonX-100) was incubated at 37° C. in the presence of 3.5 μM ZnSO4 and the basal activity was assessed via the addition of Ac-DEVD-pNA (final concentration in well of 200 μM). The absorbance at 405 nm was monitored with a SpectraMax plate reader (Molecular Devices). […] Activity of each treatment was assessed at 5, 20, 40 and 60 minutes via 5-minute kinetic reads. The slope of each data set was used to determine the activity of the protein. Activity was normalized to a percent activity at each time point using a zinc-free sample and a zinc-inhibited sample treated with DMSO.

The nature of data set [2]: Liver microsome stability assay. It is filed as in vitro ADME. The following applies: rat liver microsomes, 10 μM, LC/MS. As for the experimental part:
FIG. 4. Liver Microsome Stability Assay. Compounds (10 μM) incubated with liver microsomes for 3 h and quenched with MeCN containing internal standard, analyzed by LC/MS (280 nm). Next, the metabolic stability of the compounds was evaluated in rat liver microsomes. The compounds were evaluated for 3 hours at 10 μM, and the metabolites were observed by LC/MS.

Data set [3] relates to U-937 cells (human lymphoma). Kind of data set: 72 Hour IC50 cell death assay (sulforhodamine B). It is filed as cell-based. The conditions noted are these: U-937, 72 h, read-out: U-937 72 h IC50 (μM). The procedure:
After the synthesis was complete, the biological activity of the compounds was evaluated.
U-937 human lymphoma cells were plated into the wells of 96 well plate at a density of 15,000 cells per well in 99 μL of RPMI 1640 growth media with 10% FBS and 1% pen-strep. To each well was added 1 μL of compound stock solutions in DMSO at varying concentrations such that the cells were treated with concentrations between 0 μM and 100 μM compound. Each concentration was tested in quintuplicate per plate. In each plate 5 wells received 20 μM doxorubicin as a positive death control and 5 wells received 1 μL of DMSO as a negative control.
After the 72 hour incubation period, the plates were analyzed using a Sulforhodamine B assay (Vichai and Kirtikara, Nat Protoc 2006, 1, 1112-1116). Specifically, to each well of the plate 25 μL of a 50% (w/v) solution of trichloroacetic acid in H2O was added and the plates were incubated for 4 hours at 4° C. The plates were then washed gently with water five times. The plates were allowed to air dry after which 100 μL of a 0.057% (w/v) Sulforhodamine B in a 1% (v/v) acetic acid solution was added to each well for 30 minutes at room temperature. The plates were gently washed 5 times with 1% (v/v) acetic acid and air dried. 200 μL of 10 mM Tris base (pH 10.4) was added to each well and the plates were placed on an orbital shaker for thirty minutes. The level of SRB was quantified fluorometrically at excitation and emission wavelengths 488 and 585 nm, respectively, on a Molecular Devices plate reader and the percent cell death calculated and normalized to the positive control (100% cell death) and the negative control (0% cell death). The percent cell death was averaged for each compound concentration and plotted as a function of compound concentration. The data were fit to a logistical dose response curve using Table curve 2D and the IC50 value was calculated. The experiment was repeated three times and the average of the calculated IC50 values was reported. The standard error of the mean (SEM) was determined and reported for the triplicate experiments.

Data set [4] has as its system mice. Kind of data set: Assessment of toxicity in vivo. The following applies: mouse, in vivo. The source says:
The level of toxicity was rated on a scale of 0 (no observable adverse effect) to 3 (severe toxicity, almost fatal).

Each structure is given as a SMILES string.

Take `COc1ccc(CN2CCN(CC(=O)N/N=C/c3cc(C(C)(C)C)cc(C(C)(C)C)c3O)CC2)cc1` [3{2,7}]: the “Procaspase-3 (% Activity at […])” value in data set [1] turned out to be 53 ± 4.1%.

Take `C=CCc1cccc(/C=N/NC(=O)CN2CCN(Cc3ccc(S(N)(=O)=O)cc3)CC2)c1O` [S-PAC-1, reference compound]: the “Procaspase-3 (% Activity at […])” value in data set [1] was 4 ± 0.6%. Further, the “RLM 3 h % Stability” value is “reasonably stable” in data set [2] and 84 ± 0% in data set [2] (listed as 2 (S-PAC-1)).

For the compound `CC(C)(C)c1cc(/C=N/NC(=O)CN2CCN(Cc3ccc(OCc4ccccc4)cc3)CC2)c(O)c(C(C)(C)C)c1` [3{18,7}], the “Procaspase-3 (% Activity at […])” value in data set [1] came out at 36 ± 1.6%.

Consider `CC(C)(C)c1cc(/C=N/NC(=O)CN2CCN(Cc3ccc4ccccc4c3)CC2)c(O)c(C(C)(C)C)c1` [3{25,7}], for which, in data set [1], the “Procaspase-3 (% Activity at […])” value is given as 69 ± 5.3%.

With `CCc1ccc(CN2CCN(CC(=O)N/N=C/c3cc(C(C)(C)C)cc(C(C)(C)C)c3O)CC2)cc1` [3{28,7}], in data set [1], the “Procaspase-3 (% Activity at […])” value is reported as 60 ± 2.4%.

On to `C=CCc1cccc(/C=N/NC(=O)CN2CCN(Cc3ccccc3)CC2)c1O` [PAC-1, Procaspase-Activating Compound 1, reference compound], for which the IC50 (in general, the concentration that gives 50% inhibition) in data set [3] is 10.2 ± 0.3 µM. Also, in data set [1], the “Procaspase-3 (% Activity at […])” value is 42 ± 1.8%. Further, the “RLM 3 h % Stability” value in data set [2] is reported as 38 ± 2%. Further, the “Mouse Toxicity” value in data set [4] turned out to be 3.

Consider `C=CCc1cccc(/C=N/NC(=O)CN2CCN(Cc3ccc(C(C)(C)C)cc3)CC2)c1O` [3{20,24}, N′-(3-allyl-2-hydroxybenzylidene)-2-(4-(4-(tert-butyl)benzyl)piperazin-1-yl)acetohydrazide], for which the “Procaspase-3 (% Activity at […])” value in data set [1] is on record as 82 ± 2.4%.

For `COc1ccc(OC)c(CN2CCN(CC(=O)N/N=C/c3cc(C(C)(C)C)cc(C(C)(C)C)c3O)CC2)c1` [3{4,7}], the “Procaspase-3 (% Activity at […])” value in data set [1] is recorded as 64 ± 2.5%.
